Results published in patent US9370537B2, “Compositions and methods for reducing inflammation” (Cerule, LLC, priority 2009, dated 2016).

Assay: Case report: menstrual cramps
Type: in vivo, human
Settings: person, single dose
Protocol: The anti-inflammatory effect of the 1117 fraction is evidenced by the following: • 1. A person experienced moderate to severe muscle pain after exercising. The person was in otherwise good health, but would consume four Advil after playing tennis. […] A person in good health and with regular menstruation typically experienced a day during menstruation with moderate to severe menstrual cramps. On one occasion, the painful cramps were so severe that they were not relieved by 1 hour heat or 1000 mg Tylenol. […] The relief happened within 5-10 minutes after consumption, and lasted 8 hours. • 3. A person in good health experienced severe, throbbing muscle pain after a 1-hour session of deep tissue massage. The pain was relieved within 30 minutes after consuming a single dose of 500 mg the 1117 fraction.

CC(=O)Nc1ccc(O)cc1 [Tylenol]
effect on severe menstrual cramps and pain: not relieved
